We go through 6 molecules from patent US10011568B2, “Cyclohexyl pyridine derivative” (priority 2014, dated 2018).

Series [1] addresses human NK1 receptor (Homo sapiens (Human), UniProt P25103). The series is described as follows: Inhibitory effect on human NK1 receptor (substance P-induced increase in intracellular calcium concentration). The format is cell-based. The settings on record: substance P 1 μM, compound 0.1 μM; read-out: SPRR (%), Substance P-Response Remaining (intracellular calcium concentration). How it is done:
Inhibitory Effect on Human NK1 Receptor
(1) Preparation of Human NK1 Receptor-Expressing Cells
Human NK1 receptor-expressing cells were prepared by the same methods as those described in 2-3 of Test Example 1.
(2) Study on Inhibitory Effect on Increase in Intracellular Calcium Concentration
The human NK1 receptor-expressing cells were washed with 300 μL/well of a washing solution (20 mM HEPES/Hank's Balanced Salt Solution (HBSS) pH 7.3). A fluorescent calcium indicator (Fluo-4 Direct Calcium Assay Kit, Life Technologies, containing 0.42 mM probenecid and 0.1% bovine serum albumin, prepared according to the protocol of the product) was added to the wells at 150 μL/well, and the plate was incubated at 37° C. for 30 minutes in an incubator. Then. DMSO solutions of a test compound, which were prepared at an 80-time higher concentration using 100% dimethyl sulfoxide (DMSO), were added to the wells at 2.5 μL/well (final concentrations of 0.1, 1 and 10 μM), and the solutions were mixed. Then, the plate was further incubated at […] for 30 minutes in an incubator. After 30 minutes, the intracellular calcium concentrations were measured immediately.
The intracellular calcium concentrations were each measured as a fluorescent signal using FDSS (registered trademark) 7000 (Hamamatsu Photonics). A substance P (Peptide Institute. Inc.) solution which was prepared at 0.4 μM or 4 μM using an assay buffer (20 mM HEPES/Hank's Balanced Salt Solution (HBSS) pH 7.3, containing 0.1% bovine serum albumin) was added automatically to each well at 50 μL/well (final concentration of 0.1 or 1 μM) 10 seconds after starting reading, and the fluorescent signal was measured up to 120 seconds.
The intracellular calcium concentration (%) of the cells to which a test compound was added was calculated by the equation below, where the fluorescent signal of the group to which the vehicle (DMSO) was added was regarded as 100%, and the fluorescent signal before the addition of substance P was regarded as 0%. Intracellular calcium concentration (%)—(Fluorescent signal of test compound addition group)/(Fluorescent signal of vehicle addition group)×100
The intracellular calcium concentration (%) calculated was regarded as the remaining agonist activity of substance P (Substance P-Response Remaining: SPRR). In the table, Ex. No. means the Example number. SPRR (%) is the value obtained when the concentration of substance P was 1 μM and the concentration of the compound was 0.1 μM.

The target in series [2] is human CYP3A4 (Homo sapiens (Human), UniProt P08684). The series is described as follows: Inhibitory effect on CYP3A4. The format is in vitro ADME. The settings on record: 30-minute pre-incubation, Luciferin-IPA substrate; read-out: IC50 (μM), CYP3A4 inhibition. An outline of the steps:
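Recombinant human CYP3A4 (0.2 pmol) with 1 nM–20 μM test compound, 0.5 mM NADPH and 3 μM Luciferin-IPA in phosphate buffer pH 7.4, 10 min at 37 °C; one arm was pre-incubated 30 min at 37 °C before substrate addition.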

In series [3] the target is NK1 receptor (Meriones unguiculatus (Mongolian jird) (Gerbillus unguiculatus), UniProt Q5DUB1). The series is described as follows: Effect on foot-tapping induced by NK1 receptor agonist GR73632. The format is in vivo. The settings on record: male gerbil, 0.1 mg/kg iv, GR73632 after four hours. The gist of the method:
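Male gerbils under isoflurane received test compound 0.1 mg/kg i.v. (jugular vein) in DMA/propylene glycol/hydroxypropyl-β-cyclodextrin/water vehicle; 4 h later GR73632 (5 pmol) was given intracerebroventricularly. Foot-tapping time was recorded for 30 min after righting-reflex recovery; inhibition % was calculated relative to vehicle-treated animals.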

The nature of series [4]: Measurement of drug concentrations in the brain after foot-tapping. The format is in vivo. The settings on record: male gerbil, 0.1 mg/kg iv, after foot-tapping was finished. The gist of the method: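 Male gerbils given 0.1 mg/kg test compound i.v. (jugular vein) under isoflurane; 4 h later GR73632 (5 pmol/5 μl saline) injected intracerebroventricularly. Foot-tapping measured for 30 min after righting-reflex recovery; inhibition % relative to solvent-treated animals. Brain and plasma then collected, compound quantified by LC/MS.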

Chain of human NK1 receptor (P25103 whole entry): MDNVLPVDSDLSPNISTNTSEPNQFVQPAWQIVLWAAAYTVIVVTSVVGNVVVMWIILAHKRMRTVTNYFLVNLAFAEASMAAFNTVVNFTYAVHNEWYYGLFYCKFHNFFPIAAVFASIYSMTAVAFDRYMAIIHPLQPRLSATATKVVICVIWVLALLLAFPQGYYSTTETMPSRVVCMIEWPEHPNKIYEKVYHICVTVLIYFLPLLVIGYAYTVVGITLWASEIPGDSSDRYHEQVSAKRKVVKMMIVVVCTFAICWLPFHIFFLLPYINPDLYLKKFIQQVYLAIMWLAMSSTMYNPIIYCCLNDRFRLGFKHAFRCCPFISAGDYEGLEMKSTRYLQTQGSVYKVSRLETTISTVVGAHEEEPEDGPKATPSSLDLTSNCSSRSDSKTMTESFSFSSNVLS
Chain of human CYP3A4 (P08684 whole entry): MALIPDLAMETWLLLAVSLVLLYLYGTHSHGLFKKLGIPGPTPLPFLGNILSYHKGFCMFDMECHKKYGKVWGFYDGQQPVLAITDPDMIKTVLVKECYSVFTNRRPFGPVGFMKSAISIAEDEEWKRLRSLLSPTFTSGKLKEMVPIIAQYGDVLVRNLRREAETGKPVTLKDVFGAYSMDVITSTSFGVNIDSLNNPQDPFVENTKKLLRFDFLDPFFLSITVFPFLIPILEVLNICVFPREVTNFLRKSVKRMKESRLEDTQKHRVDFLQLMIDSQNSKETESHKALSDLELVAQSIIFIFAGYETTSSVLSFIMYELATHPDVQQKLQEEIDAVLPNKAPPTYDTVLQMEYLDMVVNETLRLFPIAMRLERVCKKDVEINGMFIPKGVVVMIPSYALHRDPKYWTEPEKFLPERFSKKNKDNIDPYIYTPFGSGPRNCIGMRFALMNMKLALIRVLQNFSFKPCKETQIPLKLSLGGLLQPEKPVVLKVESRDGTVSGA
Chain of NK1 receptor (Q5DUB1 whole entry): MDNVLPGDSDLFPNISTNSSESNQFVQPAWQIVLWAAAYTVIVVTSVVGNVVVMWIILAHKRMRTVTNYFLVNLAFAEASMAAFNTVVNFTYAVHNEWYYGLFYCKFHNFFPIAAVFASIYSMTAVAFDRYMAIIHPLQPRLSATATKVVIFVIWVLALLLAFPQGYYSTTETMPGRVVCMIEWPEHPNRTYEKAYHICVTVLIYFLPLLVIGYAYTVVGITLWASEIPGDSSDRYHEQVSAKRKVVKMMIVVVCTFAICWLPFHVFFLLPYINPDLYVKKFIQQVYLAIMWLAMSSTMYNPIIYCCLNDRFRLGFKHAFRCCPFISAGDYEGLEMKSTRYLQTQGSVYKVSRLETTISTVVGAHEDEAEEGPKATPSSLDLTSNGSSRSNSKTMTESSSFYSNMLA

`Cc1cc(F)ccc1-c1cc([C@H]2CC[C@H](C(C)(C)C(=O)O)CC2)ncc1N(C)C(=O)C(C)(C)c1cc(C(F)(F)F)cc(C(F)(F)F)c1` [Example 11, trans-2-{4-[5-{[2-(3,5-Bistrifluoromethylphenyl)-2-methylpropionyl]methylamino}-4-(4-fluoro-2-methylphenyl)pyridin-2-yl]cyclohexyl}-2-methylpropionic Acid]: the remaining activity at 0.1 µM in series [1] worked out at 5.4%. Besides, in series [2], the IC50 (in general, the concentration that inhibits the measured activity by half) amounted to 2.7 µM. In addition, in series [3], the “Inhibition (%), foot-tapping inhibition rate” value (from here on “Inhibition (%)”) was 95%. Moreover, the “Conc. (nM), drug concentration in the brain” value (from here on “Conc. (nM), drug concentration”) in series [4] stood at 72 nM.

In the case of `Cc1cc(F)ccc1-c1cc([C@H]2CC[C@H](CC(=O)O)CC2)ncc1N(C)C(=O)C(C)(C)c1cc(C(F)(F)F)cc(C(F)(F)F)c1` [Example 13, trans-{4-[5-{[2-(3,5-Bistrifluoromethylphenyl)-2-methylpropionyl]methylamino}-4-(4-fluoro-2-methylphenyl)pyridin-2-yl]cyclohexyl}acetic acid], in series [1], the remaining activity at 0.1 µM was 5.1%. For the same molecule, in series [2], the concentration for half-maximal inhibition (IC50) was found to be 8.2 µM. Further, the “Inhibition (%)” value in series [3] is 100%. Moreover, in series [4], the “Conc. (nM), drug concentration” value stood at 51 nM.

As for `Cc1cc(F)ccc1-c1cc([C@H]2CC[C@@H](CC(=O)O)CC2)ncc1N(C)C(=O)C(C)(C)c1cc(C(F)(F)F)cc(C(F)(F)F)c1` [Example 14, cis-{4-[5-{[2-(3,5-bistrifluoromethylphenyl)-2-methylpropionyl]methylamino}-4-(4-fluoro-2-methylphenyl)pyridin-2-yl]cyclohexyl}acetic acid], the remaining activity at 0.1 µM in series [1] came out at 22%. Moreover, the half-maximal inhibitory concentration (IC50) in series [2] is 7.5 µM. Moreover, in series [3], the “Inhibition (%)” value amounted to 99%. Moreover, the “Conc. (nM), drug concentration” value in series [4] is recorded as 40 nM.

Regarding `Cc1ccccc1-c1cc(C2CCC(CC(=O)O)CC2)nc(C#N)c1N(C)C(=O)C(C)(C)c1cc(C(F)(F)F)cc(C(F)(F)F)c1` (stereo not drawn) [Example 16, [4-(5-{[2-(3,5-Bistrifluoromethylphenyl)-2-methylpropionyl]methylamino}-6-cyano-4-ortho-tolylpyridin-2-yl)cyclohexyl]acetic Acid], the remaining activity at 0.1 µM in series [1] came out at 37%. The IC50 in series [2] is 3.1 µM. Also, the “Inhibition (%)” value in series [3] is recorded as 93%. Also, in series [4], the “Conc. (nM), drug concentration” value is listed as 64 nM.

For `Cc1cc(F)ccc1-c1cc([C@H]2CC[C@H](CC(=O)O)CC2)nc(C#N)c1N(C)C(=O)C(C)(C)c1cc(C(F)(F)F)cc(C(F)(F)F)c1` [Example 20, trans-{4-[5-{[2-(3,5-Bistrifluoromethylphenyl)-2-methylpropionyl]methylamino}-6-cyano--4-(4-fluoro-2-methylphenyl)-pyridin-2-yl]cyclohexyl}acetic acid], in series [1], the remaining activity at 0.1 µM came to 2.8%. Also, the half-maximal inhibitory concentration (IC50) in series [2] is 5.5 µM. Besides, the “Inhibition (%)” value in series [3] is on record as 100%. Also, the “Conc. (nM), drug concentration” value in series [4] is 92 nM.

Take `Cc1cc(F)ccc1-c1cc([C@H]2CC[C@@H](CC(=O)O)CC2)nc(C#N)c1N(C)C(=O)C(C)(C)c1cc(C(F)(F)F)cc(C(F)(F)F)c1` [Example 21, cis-{4-[5-{[2-(3,5-bistrifluoromethylphenyl)-2-methylpropionyl]methylamino}-6-cyano-4-(4-fluoro-2-methylphenyl)pyridin-2-yl]cyclohexyl}acetic acid]: the remaining activity at 0.1 µM in series [1] turned out to be 36%. Also, the concentration for half-maximal inhibition (IC50) in series [2] was 4.2 µM. In addition, the “Inhibition (%)” value in series [3] is listed as 100%. Also, the “Conc. (nM), drug concentration” value in series [4] was 92 nM.
